Experimental data reported in patent US20250290117A1, “MOLECULAR PHENOTYPIC ANTIMICROBIAL SUSCEPTIBILITY TESTING” (priority 2024, published 2025).

Key:
Escherichia coli = test: Molecular phenotypic antimicrobial susceptibility test (extraction or DNA purification prior to PCR); type: cell-based
Procedure, shortened: (§1)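 Breakpoint-concentration antimicrobials in Mueller Hinton Broth; inoculum 0.5 McFarland; 12-16 h incubation. Read-out: semi-quantitative PCR, after magnetic-bead DNA purification or direct PCR following lysis buffer in the thermal cycler.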

[1] = test system: pathogens of clinical samples; test: Molecular phenotypic antimicrobial susceptibility test of clinical samples, direct PCR without a separate DNA purification step (Table 6); type: cell-based
Procedure, shortened: as §1

E. coli = test: Molecular phenotypic antimicrobial susceptibility test with direct PCR (no extraction DNA purification step); type: cell-based, Escherichia coli
[2] = E. coli isolate 1, Ct at control (average) 21.238
[3] = E. coli isolate 1, at sensitive breakpoint
[4] = E. coli isolate 2, Ct at control (average) 21.270
[5] = E. coli isolate 2, at sensitive breakpoint
[6] = E. coli isolate 3, Ct at control (average) 22.0995
[7] = E. coli isolate 3, at sensitive breakpoint
[8] = E. coli, clinical sample of r10-r24
[9] = E. coli, clinical sample of r10-r24, Ct control avg 12.97
[10] = E. coli, clinical sample of r158-r172
[11] = E. coli, clinical sample of r158-r172, Ct control avg 12.894
[12] = K. aerogenes, clinical sample of r136-r150
[13] = K. aerogenes, clinical sample of r136-r150, Ct control avg 13.854
[14] = K. pneumoniae, clinical sample of r121-r135
[15] = K. pneumoniae, clinical sample of r121-r135, Ct control avg […]
[16] = M. morganii, clinical sample of r55-r69
[17] = M. morganii, clinical sample of r55-r69, Ct control avg 12.09
[18] = M. morganii, clinical sample of r70-r84
[19] = M. morganii, clinical sample of r70-r84, Ct control avg 11.677
[20] = P. mirabilis, clinical sample of r25-r39
[21] = P. mirabilis, clinical sample of r25-r39, Ct control avg 11.801
[22] = P. mirabilis, clinical sample of r40-r54
[23] = P. mirabilis, clinical sample of r40-r54, Ct control avg 10.06
[24] = E. coli isolate JJ1887, direct PCR, Ct at control (average) 12.832
[25] = E. coli isolate JJ1887, direct PCR, at sensitive breakpoint

O=C1CN(/N=C/c2ccc([N+](=O)[O-])o2)C(=O)N1 [Nitrofurantoin]
Ct at Sensitive Breakpoint (Escherichia coli; [2]): 35.690 | Molecular Antimicrobial Susceptibility Result (Escherichia coli; [3]): Sensitive (Antimicrobial wells with pathogen load detected below the control wells (typically >2 cycle thresholds later) may be reported as Sensitive) | Ct at Sensitive Breakpoint (Escherichia coli; [4]): 30.495 | Molecular Antimicrobial Susceptibility Result (Escherichia coli; [5]): Sensitive (Antimicrobial wells with pathogen load detected below the control wells (typically >2 cycle thresholds later) may be reported as Sensitive) | Ct at Sensitive Breakpoint (Escherichia coli; [6]): 21.722 | Molecular Antimicrobial Susceptibility Result (Escherichia coli; [7]): Sensitive (Antimicrobial wells with pathogen load detected below the control wells (typically >2 cycle thresholds later) may be reported as Sensitive) | Ct at Sensitive Breakpoint (Escherichia coli; E. coli isolate 4, Ct at control (average) 17.5733): 32.06 | Molecular Antimicrobial Susceptibility Result (Escherichia coli; E. coli isolate 4, at sensitive breakpoint): Sensitive (Antimicrobial wells with pathogen load detected below the control wells (typically >2 cycle thresholds later) may be reported as Sensitive) | Ct at Sensitive Breakpoint (Escherichia coli; E. coli isolate 5, Ct at control (average) 21.0933): 33.53 | Molecular Antimicrobial Susceptibility Result (Escherichia coli; E. coli isolate 5, at sensitive breakpoint): Sensitive (Antimicrobial wells with pathogen load detected below the control wells (typically >2 cycle thresholds later) may be reported as Sensitive) | Molecular Antibiotic Susceptibility Result [1, 8]: Sensitive (Antimicrobial wells with pathogen load detected below the control wells (typically >2 cycle thresholds later) may be reported as Sensitive) | Ct [1, 9]: 24.883 | Molecular Antibiotic Susceptibility Result [1, 10]: Sensitive (Antimicrobial wells with pathogen load detected below the control wells (typically >2 cycle thresholds later) may be reported as Sensitive) | Ct [1, 11]: 27.377 | Molecular Antibiotic Susceptibility Result ([1]; E. faecalis, clinical sample of r93-r99): Sensitive (Antimicrobial wells with pathogen load detected below the control wells (typically >2 cycle thresholds later) may be reported as Sensitive) | Ct ([1]; E. faecalis, clinical sample of r93-r99, Ct control avg 22.011): 36.826 | Ct ([1]; E. faecalis, clinical sample of r100-r106, Ct control avg 21.027): 33.684 | Ct ([1]; E. faecalis, clinical sample of r107-r113, Ct control avg 20.529): 32.294 | Molecular Antibiotic Susceptibility Result ([1]; E. faecalis, clinical sample of r114-r120): Sensitive (Antimicrobial wells with pathogen load detected below the control wells (typically >2 cycle thresholds later) may be reported as Sensitive) | Ct ([1]; E. faecalis, clinical sample of r114-r120, Ct control avg 20.909): 32.771 | Molecular Antibiotic Susceptibility Result ([1]; E. faecalis, clinical sample of r151-r157): Sensitive (Antimicrobial wells with pathogen load detected below the control wells (typically >2 cycle thresholds later) may be reported as Sensitive) | Ct ([1]; E. faecalis, clinical sample of r151-r157, Ct control avg 18.551): 37.634 | Molecular Antibiotic Susceptibility Result [1, 12]: Sensitive (Antimicrobial wells with pathogen load detected below the control wells (typically >2 cycle thresholds later) may be reported as Sensitive) | Ct [1, 13]: 29.821 | Molecular Antibiotic Susceptibility Result [1, 14]: Sensitive (Antimicrobial wells with pathogen load detected below the control wells (typically >2 cycle thresholds later) may be reported as Sensitive) | Ct [1, 15]: 28.708 | Molecular Antibiotic Susceptibility Result [1, 16]: Sensitive (Antimicrobial wells with pathogen load detected below the control wells (typically >2 cycle thresholds later) may be reported as Sensitive) | Ct [1, 17]: 28.588 | Molecular Antibiotic Susceptibility Result [1, 18]: Sensitive (Antimicrobial wells with pathogen load detected below the control wells (typically >2 cycle thresholds later) may be reported as Sensitive) | Ct [1, 19]: 29.959 | Molecular Antibiotic Susceptibility Result [1, 20]: Resistant | Ct [1, 21]: 12.013 | Molecular Antibiotic Susceptibility Result [1, 22]: Resistant | Ct [1, 23]: 10.329 | Molecular Antibiotic Susceptibility Result ([1]; S. aureus, clinical sample of r85-r92): Sensitive (Antimicrobial wells with pathogen load detected below the control wells (typically >2 cycle thresholds later) may be reported as Sensitive) | Ct ([1]; S. aureus, clinical sample of r85-r92, Ct control avg 20.309): 32.477 | Molecular Antimicrobial Susceptibility Result (E. coli; E. coli #1 - WDCM 00090 - 6.2×E3, specimen with <10,000 cells/mL, direct PCR after 16 hours of incubation): Sensitive (Antimicrobial wells with pathogen load detected below the control wells (typically >2 cycle thresholds later) may be reported as Sensitive) | Ct at Sensitive Breakpoint (E. coli; E. coli #1 - WDCM 00090 - 6.2×E3, specimen with <10,000 cells/mL, direct PCR after 16 hours of incubation, Ct at control 13.787): 27.90 | Molecular Antimicrobial Susceptibility Result (E. coli; E. coli #2 - WDCM 00090 - 6.2×E3, specimen with <10,000 cells/mL, direct PCR after 16 hours of incubation): Sensitive (Antimicrobial wells with pathogen load detected below the control wells (typically >2 cycle thresholds later) may be reported as Sensitive) | Ct at Sensitive Breakpoint (E. coli; E. coli #2 - WDCM 00090 - 6.2×E3, specimen with <10,000 cells/mL, direct PCR after 16 hours of incubation, Ct at control 13.46): 28.97 | Ct at Sensitive Breakpoint (E. coli; [24]): 26.305 | Molecular Antimicrobial Susceptibility Result (E. coli; [25]): Sensitive (Antimicrobial wells with pathogen load detected below the control wells (typically >2 cycle thresholds later) may be reported as Sensitive)

Ampicillin/Sulbactam
Ct at Sensitive Breakpoint (Escherichia coli; [2]): 19.827 | Molecular Antimicrobial Susceptibility Result (Escherichia coli; [3]): Resistant | Ct at Sensitive Breakpoint (Escherichia coli; [4]): 21.753 | Molecular Antimicrobial Susceptibility Result (Escherichia coli; [5]): Resistant | Ct at Sensitive Breakpoint (Escherichia coli; [6]): 20.363 | Molecular Antimicrobial Susceptibility Result (Escherichia coli; [7]): Resistant | Molecular Antibiotic Susceptibility Result [1, 8]: Resistant | Ct [1, 9]: 13.482 | Molecular Antibiotic Susceptibility Result [1, 10]: Sensitive (Antimicrobial wells with pathogen load detected below the control wells (typically >2 cycle thresholds later) may be reported as Sensitive) | Ct [1, 11]: 27.583 | Molecular Antibiotic Susceptibility Result [1, 12]: Sensitive (Antimicrobial wells with pathogen load detected below the control wells (typically >2 cycle thresholds later) may be reported as Sensitive) | Ct [1, 13]: 29.276 | Molecular Antibiotic Susceptibility Result [1, 14]: Resistant | Ct [1, 15]: 15.608 | Molecular Antibiotic Susceptibility Result [1, 16]: Sensitive (Antimicrobial wells with pathogen load detected below the control wells (typically >2 cycle thresholds later) may be reported as Sensitive) | Ct [1, 17]: 26.942 | Molecular Antibiotic Susceptibility Result [1, 18]: Sensitive (Antimicrobial wells with pathogen load detected below the control wells (typically >2 cycle thresholds later) may be reported as Sensitive) | Ct [1, 19]: 32.39 | Molecular Antibiotic Susceptibility Result [1, 20]: Sensitive (Antimicrobial wells with pathogen load detected below the control wells (typically >2 cycle thresholds later) may be reported as Sensitive) | Ct [1, 21]: 28.121 | Molecular Antibiotic Susceptibility Result [1, 22]: Sensitive (Antimicrobial wells with pathogen load detected below the control wells (typically >2 cycle thresholds later) may be reported as Sensitive) | Ct [1, 23]: 30.953 | Ct at Sensitive Breakpoint (E. coli; [24]): 12.693 | Molecular Antimicrobial Susceptibility Result (E. coli; [25]): Resistant
